Measurements from patent US11287416B2, “Cancer” (NEURO-BIO LTD, priority 2016, dated 2022).
“Also recorded” adds a separate entry of the source. Square brackets hold non-standard residues; d marks the D form. Peptide text beside a SMILES is read from it. Bpa = N[C@@H](Cc1ccc(C(=O)c2ccccc2)cc1)C(=O)O; Phe(4-NH2) = Nc1ccc(C[C@H](N)C(=O)O)cc1; hArg = N=C(N)NCCCC[C@H](N)C(=O)O

How the values were obtained:
Format in all cases: cell-based
[1] = tested on: alpha7 nicotinic receptors, PC12 cells; test: Calcium fluorometry (Fluo-8), PNU282987-induced calcium influx in PC12 cells; settings: PNU282987 1 μM; for protection against T30-induced calcium influx: T30 combined with blocker
Protocol: PC12 cells were plated in 200 μl of Dulbecco's Modified Eagle's medium (DMEM) plus 2 mM of L-glutamine medium the day before the experiment in 96 well plates. On the day of the experiment, the Fluo-8 solution (Abcam) was prepared as described by the provider by adding 20 μl of Fluo-8 in the assay buffer that contains 9 ml of Hank's Balanced Salt Solution (HBSS) and 1 ml of pluronic F127 Plus. Subsequently, 100 μl of growth medium was removed and 100 μl of Fluo-8 solution were added. Treatments with T30 in conjunction with NBP14 or Tri peptides were added and incubated for 30 minutes in the incubator and 30 minutes room temperature. After 1 h, the plate was placed in the fluorescence plate reader (Fluostar, Optima, BMG Labtech, Ortenberg, Germany). Before reading the fluorescence, PNU282987 1 μM, an alpha7 specific agonist of the nicotinic receptors, was prepared and placed in the Fluostar injector. For each well, the reading was formed by a basal fluorescence reading followed by PNU282987 injection that induced an increase of calcium via nicotinic receptors.
(§1) In each of the different cell techniques, the statistics analysis was performed with the average of the percentage values of 3 or more experiments. Comparisons between multiple treatment groups and the same control were performed by one-way analysis of variance (ANOVA) and Tukey's post-hoc tests using GraphPAD Instat (GraphPAD software, San Diego, Calif.). Statistical significance was taken at a p value<0.05.

[2] = tested on: AChE activity, PC12 cells; settings: for protection against T30-induced AChE activity: T30 1 μM combined with blocker
Protocol: AChE activity was measured using the Ellman reagent that measures the presence of thiol groups as a result of AChE activity. In the case of the G4 experiment, AChE (G4) activity was tested alone and also together with either NBP14 or Tri peptides. PC12 cells were plated the day before the experiment as for the cell viability assay. Cells were treated with T30 (1 μM) alone or combined with NBP14 or Tri peptide (0.5 μM). After treatment, supernatant (perfusate) of each treatment was collected and 25 μL from is each condition were added to a new flat bottomed 96 well plate followed by the addition of 175 μl of Ellman reagent (Solution A: KH2PO4 139 mM and K2HPO4 79.66 mM, pH 7.0; solution B (substrate): Acetylthiocholine Iodide 11.5 mM; Solution C (Reagent): 5,5′-dithiobis (2-nitrobenzoic acid) 8 mM and NaHCO15 mM). The Ellman reagent was prepared as a mixture of the 3 solutions in a ratio 33(A):3(B):4(C). Absorbance measurements were taken for an interval of 60 minutes across experiments at 405 nm in a Vmax plate reader (Molecular devices, Wokingham, UK).
as §1

rat basal forebrain = test: voltage-sensitive dye imaging (VSDI) on brain slices; settings: for magnitude (summed fluorescence) of evoked responses, compound alone: 4 μM in perfusate, no T30, rat basal forebrain slices
Protocol: Male Wistar rats (14 days old) were anaesthetised using isoflurane ([…], 100% w/w). Isoflurane was applied to the cotton bed at the bottom of an anaesthetic chamber (glass box 20×15×15 cm) where rats were then placed for approximately 45 s until complete anaesthesia was reached. The hind paw of each anaesthetised rat was pinched to check for the appropriate depth of anaesthesia. Upon confirmation of anaesthesia, rats were quickly decapitated, with the brain being quickly removed and immersed in ice cold oxygenated ‘slicing’ artificial cerebrospinal fluid (aCSF in mmol: 120 NaCl, 5 KCL, 20 NaHCO3, 2.4 CaCl2 2 MgSO4, 1.2 KH2PO4, 10 glucose, 6.7 HEPES salt and 3.3 HEPES acid; pH=7.1). Coronal slices (400 μm thick) were then taken from a block of brain containing the basal forebrain, namely the MS-dBB complex (between +9.20 and +9.48 mm Interaural and +0.48 and +0.2 mm Bregma, FIG. 4A) and the somatosensory barrel field cortex (SiBF, between +8.08 and +7.20 mm Interaural and −0.92 mm and −1.80 mm Bregma) (Paxinos and Watson, 1998) using a Vibratome (Leica VT1000S). Slices were then transferred to a bubbler pot containing oxygenated aCSF at room temperature (recording aCSF in mmol: 124 NaCl, 5 KCL, 20 NaHCO3, 2.4 CaCl2 2 MgSO4, 1.3 KH2PO4, 10 glucose; pH=7.4) which was identical to that used in VSDI (voltage sensitive dye imaging) recording. Slices were then left for approximately 1-1.5 hours before preparing them for VSD staining.
Slices were placed in a dark, high humidity chamber filled with aCSF bubbled with 95% O2, 5% CO2. Once there, the dye solution (4% 0.2 mM styryl dye pyridinium 4-[2-[6-(dibutylamino)-2-napthalenyl]-ethenyl]-1-(3-sulfopropyl)hydroxide(Di-4-NEPPS), Invitrogen, Paisley, UK in 48% aCSF, 48% foetal bovine serum, 3.5% DMSO and 0.4% cremophore EL) (Tominaga et al., 2000) was applied to the slices for 20-25 minutes before being transferred back to a bubbler pot containing oxygenated aCSF kept at room temperature for 30 minutes.
When starting the VSDI recordings, slices were placed in the recording bath on a small piece of filter paper to allow the flow of oxygenated aCSF on the underside of the slice and in order to keep it alive. The slice was then weighed down by a home-made plastic grid that was placed on top of the slice. The perfusing bath solution was heated to 30±1° C. by a stage heater. A concentric bipolar stimulating electrode (FHC, Maine, USA) was placed in the ventral diagonal band of the basal forebrain with stimulation being set to 30V. For the acquisition of VSD data, 2 dimensional images, equivalent to 88×60 pixels, were recorded using the MiCamo2 High Resolution camera (Brain Vision, Japan) with BV_Analyze imaging software. Acquisition of images was coupled to Spike2 V4.23 software (CED Ltd, Cambridge, UK) in order to align the image capture with the stimulation protocol (every 28 s with 30 repeats) via the Micro 1401 MkII. (CED Ltd, Cambridge, UK). Light was generated using an Osram halogen xenophot 64634 HLX EFR Display/Optic lamp and was filtered to emit green (530±10 nm) light using a MHF-G150LR (Moritex Corporation) coupled to the MiCamo2 High resolution imaging system and filtered the emitted fluorescence through a >590 nm high pass filter.
All drug and peptide stocks were prepared in frozen aliquots prior to experiments. For the production of perfusion solutions, stock solutions were thawed and added to recording aCSF as appropriate and bath applied at a constant rate of 1.5 ml/min perfusion using the Minipulse 3 peristaltic pump (Gilson Scientific Ltd., Bedfordshire, UK).

astroglia = test: cell proliferation assay (trophic-toxic effects); settings: for toxic effect in cell proliferation assay: high concentration, 10 μM
[3] = co-perfusion 4 μM blocker with 2 uM T30

Compound | protection against T30-induced calcium influx [1] | protection against T30-induced AChE activity [2] | magnitude (summed fluorescence) of evoked responses, compound alone (rat basal forebrain) | magnitude (summed fluorescence) of evoked responses, compound alone (rat basal forebrain; listed as Triol) | blocking of T30-induced effects on basal forebrain activity (rat basal forebrain; [3]) | blocking of T30-induced effects on basal forebrain activity (rat basal forebrain; co-perfusion 2 μM blocker with 2 μM T30, n=29) | cell proliferation, trophic effect on astroglia (astroglia; 1 pM peptide) [%] | cell proliferation, trophic effect on astroglia (astroglia; 10 pM peptide) [%] | toxic effect in cell proliferation assay (astroglia) | calcium influx ([1]; peptide alone, 1 μM) | AChE activity ([2]; peptide alone, 1 μM) | effect of T30 alone on evoked VSDI signal (rat basal forebrain; T30 2 uM, basal forebrain of p14 rats)
CC(=O)N[C@@H](Cc1ccc2ccccc2c1)C(=O)N[C@@H](Cc1ccc(N)cc1)C(=O)N[C@@H](Cc1c[nH]c2ccccc12)C(N)=O [Tri02] (HELM PEPTIDE1{[ac].[O=C([C@H](Cc1ccc2ccccc2c1)N[*:1])[*:2]].[Nc1ccc(C[C@H](N[*:1])C(=O)[*:2])cc1].W.[am]}$$$$V2.0) | protects against the toxic effects of T30 | protects against the toxic effects of T30 | small alterations | recapitulates results seen with application of 4 μM NBP14 | not found to protect against T30-induced deviations from baseline; also recorded: some efficacy in blocking those T30-induced deviation |  |  |  |  |  |  | 
CC(=O)N[C@@H](Cc1ccc(C(=O)c2ccccc2)cc1)C(=O)N[C@@H](CCCCNC(=N)N)C(=O)N[C@@H](Cc1ccc(N)cc1)C(N)=O [Tri04] (Ac-[Bpa]-[hArg]-[Phe(4-NH2)]-NH2) | protects the toxic effects of T30 by reducing calcium influx |  |  |  | totally block the T30-induced effects; also recorded: recapitulates results previously seen with the application of 4 μM NBP14; also recorded: significant effect reversing T30 activity | significant effect on basal forebrain population activity; also recorded: reversal of the inhibitory effect of T30; also recorded: increase in network activity; also recorded: protective role |  |  |  |  |  | 
AEFHRWSSYMVHWK (listed as Homo sapiens) [Compound T14, toxic 14 amino acid peptide from the C-terminus of acetylcholinesterase] |  |  |  |  |  |  | 96±5 | 121±8 | equal toxic effects |  |  | 
KAEFHRWSSYMVHWKNQFDHYSKQDRCSDL (listed as Homo sapiens) [Compound T30, Acetylcholinesterase (AChE) C-terminus 30 amino acid peptide] |  |  |  |  |  |  | 120±4 | 135±9 | equal toxic effects | increases | increases | greatest deviation; also recorded: net inhibition
c[AEFHRWSSYMVHWK] (head-to-tail cyclised; listed as Homo sapiens) [NBP14] | protects against these toxic effects | protects against these toxic effects | small, non-significant alterations |  | totally block the T30-induced effects |  |  |  |  |  |  | 
